Measurements as given in PubChem BioAssay (NCI).
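How tested: cells in 96-well plates exposed to compound for 48 hours at five concentrations. TGI: total growth inhibition.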

Tests used:
Experiment in all cases: DTP human tumour cell line panel, 48 h
T-47D breast = tested on: T-47D breast
SK-MEL-5 melanoma = tested on: SK-MEL-5 melanoma
HL-60(TB) leukemia = tested on: HL-60(TB) leukemia
HS 578T breast = tested on: HS 578T breast
MOLT-4 leukemia = tested on: MOLT-4 leukemia
786-0 renal = tested on: 786-0 renal
SK-OV-3 ovarian = tested on: SK-OV-3 ovarian
CAKI-1 renal = tested on: CAKI-1 renal
NCI-H23 lung = tested on: NCI-H23 lung
A549 NSCLC = tested on: A549 NSCLC
K-562 leukemia = tested on: K-562 leukemia
SK-MEL-2 melanoma = tested on: SK-MEL-2 melanoma
CCRF-CEM leukemia = tested on: CCRF-CEM leukemia
RPMI-8226 leukemia = tested on: RPMI-8226 leukemia
HT29 colon = tested on: HT29 colon
MDA-N = tested on: MDA-N
NCI-H460 lung = tested on: NCI-H460 lung
NCI-H522 lung = tested on: NCI-H522 lung
MALME-3M melanoma = tested on: MALME-3M melanoma
MDA-MB-435 = tested on: MDA-MB-435
OVCAR-5 ovarian = tested on: OVCAR-5 ovarian
SF-295 CNS = tested on: SF-295 CNS
DU-145 prostate = tested on: DU-145 prostate
EKVX NSCLC = tested on: EKVX NSCLC
SN12C renal = tested on: SN12C renal
IGROV1 ovarian = tested on: IGROV1 ovarian
SNB-75 CNS = tested on: SNB-75 CNS
TK-10 renal = tested on: TK-10 renal
BT-549 breast = tested on: BT-549 breast
COLO 205 colon = tested on: COLO 205 colon
ACHN renal = tested on: ACHN renal
MCF7 breast = tested on: MCF7 breast
HCC-2998 colon = tested on: HCC-2998 colon
MDA-MB-231 breast = tested on: MDA-MB-231 breast
HOP-92 NSCLC = tested on: HOP-92 NSCLC
OVCAR-4 ovarian = tested on: OVCAR-4 ovarian
NCI-H226 lung = tested on: NCI-H226 lung
OVCAR-8 ovarian = tested on: OVCAR-8 ovarian
SF-539 CNS = tested on: SF-539 CNS
A498 renal = tested on: A498 renal
OVCAR-3 ovarian = tested on: OVCAR-3 ovarian
U251 CNS = tested on: U251 CNS
PC-3 prostate = tested on: PC-3 prostate
UO-31 renal = tested on: UO-31 renal
SW-620 colon = tested on: SW-620 colon
HCT-15 colon = tested on: HCT-15 colon
M14 melanoma = tested on: M14 melanoma
KM12 colon = tested on: KM12 colon
HOP-62 NSCLC = tested on: HOP-62 NSCLC
SF-268 CNS = tested on: SF-268 CNS
RXF 393 renal = tested on: RXF 393 renal
NCI/ADR-RES ovarian = tested on: NCI/ADR-RES ovarian
SR leukemia = tested on: SR leukemia
UACC-257 melanoma = tested on: UACC-257 melanoma
UACC-62 melanoma = tested on: UACC-62 melanoma
SK-MEL-28 melanoma = tested on: SK-MEL-28 melanoma
SNB-19 CNS = tested on: SNB-19 CNS
HCT-116 colon = tested on: HCT-116 colon
LOX IMVI melanoma = tested on: LOX IMVI melanoma

## Clc1ccc(-c2noc(CN3CCCCC3)n2)cc1
T-47D breast
  TGI: > 100 µM
SK-MEL-5 melanoma
  TGI: > 100 µM
HL-60(TB) leukemia
  TGI: > 100 µM
HS 578T breast
  TGI: > 100 µM
MOLT-4 leukemia
  TGI: > 100 µM
786-0 renal
  TGI: > 100 µM
SK-OV-3 ovarian
  TGI: > 100 µM
CAKI-1 renal
  TGI: > 100 µM
NCI-H23 lung
  TGI: > 100 µM
A549 NSCLC
  TGI: > 100 µM
K-562 leukemia
  TGI: > 100 µM
SK-MEL-2 melanoma
  TGI: > 100 µM
CCRF-CEM leukemia
  TGI: > 100 µM
RPMI-8226 leukemia
  TGI: > 100 µM
HT29 colon
  TGI: > 100 µM
MDA-N
  TGI: > 100 µM
NCI-H460 lung
  TGI: > 100 µM
NCI-H522 lung
  TGI: > 100 µM
MALME-3M melanoma
  TGI: > 100 µM
MDA-MB-435
  TGI: > 100 µM
OVCAR-5 ovarian
  TGI: > 100 µM
SF-295 CNS
  TGI: > 100 µM
DU-145 prostate
  TGI: > 100 µM
EKVX NSCLC
  TGI: > 100 µM
SN12C renal
  TGI: > 100 µM
IGROV1 ovarian
  TGI: > 100 µM
SNB-75 CNS
  TGI: > 100 µM
TK-10 renal
  TGI: > 100 µM
BT-549 breast
  TGI: > 100 µM
COLO 205 colon
  TGI: > 100 µM
ACHN renal
  TGI: > 100 µM
MCF7 breast
  TGI: > 100 µM
HCC-2998 colon
  TGI: > 100 µM
MDA-MB-231 breast
  TGI: > 100 µM
HOP-92 NSCLC
  TGI: > 100 µM
OVCAR-4 ovarian
  TGI: > 100 µM
NCI-H226 lung
  TGI: > 100 µM
OVCAR-8 ovarian
  TGI: > 100 µM
SF-539 CNS
  TGI: > 100 µM
A498 renal
  TGI: > 100 µM
OVCAR-3 ovarian
  TGI: > 100 µM
U251 CNS
  TGI: > 100 µM
PC-3 prostate
  TGI: > 100 µM
UO-31 renal
  TGI: > 100 µM
SW-620 colon
  TGI: > 100 µM
HCT-15 colon
  TGI: > 100 µM
M14 melanoma
  TGI: > 100 µM
KM12 colon
  TGI: > 100 µM
HOP-62 NSCLC
  TGI: > 100 µM
SF-268 CNS
  TGI: > 100 µM
RXF 393 renal
  TGI: > 100 µM
NCI/ADR-RES ovarian
  TGI: > 100 µM
SR leukemia
  TGI: > 100 µM
UACC-257 melanoma
  TGI: > 100 µM
UACC-62 melanoma
  TGI: > 100 µM
SK-MEL-28 melanoma
  TGI: > 100 µM
SNB-19 CNS
  TGI: > 100 µM
HCT-116 colon
  TGI: > 100 µM

## COc1ccc(CN=C2N/C(=C\c3ccccc3Cl)C(=O)N2C)cc1
LOX IMVI melanoma
  TGI: 43 µM
T-47D breast
  TGI: 48.8 µM
SK-MEL-5 melanoma
  TGI: 43.2 µM
HL-60(TB) leukemia
  TGI: 57.9 µM
HS 578T breast
  TGI: > 100 µM
MOLT-4 leukemia
  TGI: > 100 µM
786-0 renal
  TGI: 36.1 µM
SK-OV-3 ovarian
  TGI: > 100 µM
CAKI-1 renal
  TGI: > 100 µM
A549 NSCLC
  TGI: > 100 µM
K-562 leukemia
  TGI: > 100 µM
SK-MEL-2 melanoma
  TGI: 42.8 µM
HT29 colon
  TGI: 57.2 µM
MDA-N
  TGI: 44.5 µM
NCI-H460 lung
  TGI: > 100 µM
NCI-H522 lung
  TGI: 51.1 µM
MALME-3M melanoma
  TGI: > 100 µM
MDA-MB-435
  TGI: 46.8 µM
OVCAR-5 ovarian
  TGI: > 100 µM
SF-295 CNS
  TGI: > 100 µM
DU-145 prostate
  TGI: > 100 µM
EKVX NSCLC
  TGI: > 100 µM
SN12C renal
  TGI: 39.8 µM
IGROV1 ovarian
  TGI: 62.6 µM
SNB-75 CNS
  TGI: 38.4 µM
TK-10 renal
  TGI: > 100 µM
BT-549 breast
  TGI: 94.8 µM
COLO 205 colon
  TGI: 58.8 µM
ACHN renal
  TGI: > 100 µM
MCF7 breast
  TGI: 90.2 µM
HCC-2998 colon
  TGI: 59.9 µM
MDA-MB-231 breast
  TGI: 96.9 µM
HOP-92 NSCLC
  TGI: 63.4 µM
OVCAR-4 ovarian
  TGI: 86.4 µM
NCI-H226 lung
  TGI: > 100 µM
OVCAR-8 ovarian
  TGI: 77.4 µM
SF-539 CNS
  TGI: 72.7 µM
A498 renal
  TGI: 77.9 µM
OVCAR-3 ovarian
  TGI: 52.4 µM
U251 CNS
  TGI: 40.7 µM
PC-3 prostate
  TGI: 96.6 µM
SW-620 colon
  TGI: 50.1 µM
HCT-15 colon
  TGI: > 100 µM
M14 melanoma
  TGI: 36.2 µM
KM12 colon
  TGI: 52.2 µM
HOP-62 NSCLC
  TGI: > 100 µM
SF-268 CNS
  TGI: > 100 µM
RXF 393 renal
  TGI: > 100 µM
NCI/ADR-RES ovarian
  TGI: > 100 µM
SR leukemia
  TGI: 90 µM
UACC-257 melanoma
  TGI: > 100 µM
UACC-62 melanoma
  TGI: 37.6 µM
SK-MEL-28 melanoma
  TGI: > 100 µM
SNB-19 CNS
  TGI: > 100 µM
HCT-116 colon
  TGI: 39.3 µM

## OC1(c2ccccc2)CSc2ncnn21 (centres undefined)
LOX IMVI melanoma
  TGI: > 100 µM
T-47D breast
  TGI: > 100 µM
SK-MEL-5 melanoma
  TGI: > 100 µM
HL-60(TB) leukemia
  TGI: > 100 µM
HS 578T breast
  TGI: > 100 µM
MOLT-4 leukemia
  TGI: > 100 µM
786-0 renal
  TGI: > 100 µM
SK-OV-3 ovarian
  TGI: > 100 µM
CAKI-1 renal
  TGI: > 100 µM
NCI-H23 lung
  TGI: > 100 µM
A549 NSCLC
  TGI: > 100 µM
K-562 leukemia
  TGI: > 100 µM
SK-MEL-2 melanoma
  TGI: > 100 µM
CCRF-CEM leukemia
  TGI: > 100 µM
HT29 colon
  TGI: > 100 µM
MDA-N
  TGI: > 100 µM
NCI-H460 lung
  TGI: > 100 µM
NCI-H522 lung
  TGI: > 100 µM
MALME-3M melanoma
  TGI: > 100 µM
MDA-MB-435
  TGI: > 100 µM
SF-295 CNS
  TGI: > 100 µM
DU-145 prostate
  TGI: > 100 µM
EKVX NSCLC
  TGI: > 100 µM
SN12C renal
  TGI: > 100 µM
IGROV1 ovarian
  TGI: > 100 µM
SNB-75 CNS
  TGI: > 100 µM
TK-10 renal
  TGI: > 100 µM
BT-549 breast
  TGI: > 100 µM
COLO 205 colon
  TGI: > 100 µM
ACHN renal
  TGI: > 100 µM
MCF7 breast
  TGI: > 100 µM
HCC-2998 colon
  TGI: > 100 µM
MDA-MB-231 breast
  TGI: > 100 µM
HOP-92 NSCLC
  TGI: > 100 µM
OVCAR-4 ovarian
  TGI: > 100 µM
NCI-H226 lung
  TGI: > 100 µM
OVCAR-8 ovarian
  TGI: > 100 µM
SF-539 CNS
  TGI: > 100 µM
A498 renal
  TGI: > 100 µM
OVCAR-3 ovarian
  TGI: > 100 µM
U251 CNS
  TGI: > 100 µM
PC-3 prostate
  TGI: > 100 µM
UO-31 renal
  TGI: > 100 µM
SW-620 colon
  TGI: > 100 µM
HCT-15 colon
  TGI: > 100 µM
M14 melanoma
  TGI: > 100 µM
KM12 colon
  TGI: > 100 µM
HOP-62 NSCLC
  TGI: > 100 µM
SF-268 CNS
  TGI: > 100 µM
RXF 393 renal
  TGI: > 100 µM
NCI/ADR-RES ovarian
  TGI: > 100 µM
SR leukemia
  TGI: > 100 µM
UACC-257 melanoma
  TGI: > 100 µM
UACC-62 melanoma
  TGI: > 100 µM
SNB-19 CNS
  TGI: > 100 µM
HCT-116 colon
  TGI: > 100 µM
